Measured values: patent publication US8546452B2, “S1P3 receptor antagonist” (TOA Eiyo Ltd., priority 2005, dated 2013)
Where two headings read alike, the source gives them in different places.

Legend:
Assay type in all cases: cell-based
hS1P3 = hS1P3 (Homo sapiens, UniProt Q99500); test: Suppressive effect on S1P-induced increase in [Ca2+]i, CHO-K1 cells expressing S1P3 (Fura 2-AM), IC50; settings: S1P solution 50 nmol/L, read-out: hS1P3 suppression IC50
hS1P1 = biological target: T1, hS1P1 (Homo sapiens, UniProt P21453); test: S1P receptor subtype selectivity, S1P-induced [Ca2+]i increase in CHO-K1 cells stably expressing S1P1 (Calcium3)
T1 construct: expressed in transfected cells
T1 sequence (P21453 whole entry): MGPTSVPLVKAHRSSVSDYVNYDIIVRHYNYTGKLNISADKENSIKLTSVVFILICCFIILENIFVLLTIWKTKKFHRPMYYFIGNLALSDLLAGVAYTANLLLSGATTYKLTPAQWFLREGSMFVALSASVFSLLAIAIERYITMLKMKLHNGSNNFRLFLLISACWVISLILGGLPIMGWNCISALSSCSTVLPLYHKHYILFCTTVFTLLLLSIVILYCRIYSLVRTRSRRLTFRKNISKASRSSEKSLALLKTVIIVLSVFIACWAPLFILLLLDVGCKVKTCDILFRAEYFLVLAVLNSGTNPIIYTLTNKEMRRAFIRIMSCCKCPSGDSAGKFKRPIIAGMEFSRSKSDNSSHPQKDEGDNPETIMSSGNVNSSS
Description: (§1) The selectivity to the S1P receptor subtype was examined in the following manner. […] Furthermore, a Calcium3 (Molecular Devices, Inc.) solution prepared in HBSS (+) buffer, which is a fluorescent Ca^2+ indicator, was added, and the cells were incubated for 60 minutes at 37° C. Then, 100 μL of a test compound solution prepared to a concentration of 2×10 μmol/L was added, and the cells were incubated for 20 minutes at 37° C. […] The indicator was prepared and used according to the instruction manual.
(§2) A solution of the test compound was prepared by dissolving each of the test compounds in DMSO to a concentration of 10 mmol/L, and then diluting the solution with an HBSS (+) buffer solution to the predetermined concentration. […] The measurement values were obtained by subtracting the maximum RFU value for the blind test from the maximum RFU values for control or each test compounds. A decrease in the measurement value for the test compound relative to the control was indicated as the suppression rate (%), from which the IC50 value was calculated.

hS1P2 = biological target: T2, hS1P2 (Homo sapiens, UniProt O95136); test: S1P receptor subtype selectivity, S1P-induced [Ca2+]i increase in CHO-K1 cells stably expressing S1P2 (Calcium3)
T2 construct: expressed in transfected cells
T2 sequence (O95136 whole entry): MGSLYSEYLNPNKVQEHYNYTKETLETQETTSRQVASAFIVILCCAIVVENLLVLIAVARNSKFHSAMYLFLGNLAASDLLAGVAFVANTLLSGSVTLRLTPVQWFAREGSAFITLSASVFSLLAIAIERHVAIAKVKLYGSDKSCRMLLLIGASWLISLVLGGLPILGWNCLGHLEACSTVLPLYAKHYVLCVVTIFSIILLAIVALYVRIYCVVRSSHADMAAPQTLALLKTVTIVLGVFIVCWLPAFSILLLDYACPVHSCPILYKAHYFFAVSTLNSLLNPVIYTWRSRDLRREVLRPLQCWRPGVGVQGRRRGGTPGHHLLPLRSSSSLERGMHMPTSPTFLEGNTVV
Description: as §1, §2

[1] = 10 μM, CHO-K1 stably expressing S1P1, S1P solution 100 nmol/L, Calcium3, read-out: Suppression rate at 10 μM (%) hS1P1
[2] = 10 μM, CHO-K1 stably expressing S1P2, S1P solution 100 nmol/L, Calcium3, read-out: Suppression rate at 10 μM (%) hS1P2
[3] = CHO-K1, read-out: Suppression rate at 10 μM (%) hS1P1
[4] = CHO-K1, read-out: Suppression rate at 10 μM (%) hS1P2

Sequence of hS1P3 (Q99500 whole entry): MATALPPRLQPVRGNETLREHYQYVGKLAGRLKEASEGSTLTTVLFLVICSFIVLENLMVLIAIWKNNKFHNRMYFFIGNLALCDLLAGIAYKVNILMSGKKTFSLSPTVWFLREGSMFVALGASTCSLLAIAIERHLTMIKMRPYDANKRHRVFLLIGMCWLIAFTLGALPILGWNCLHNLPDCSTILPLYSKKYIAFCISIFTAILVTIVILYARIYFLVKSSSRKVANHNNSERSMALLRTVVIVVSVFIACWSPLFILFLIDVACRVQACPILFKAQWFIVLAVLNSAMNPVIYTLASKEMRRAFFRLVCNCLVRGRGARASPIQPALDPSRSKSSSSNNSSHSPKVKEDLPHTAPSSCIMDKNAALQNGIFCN

| SMILES | IC50 (hS1P3) | inhibition at 10 µM (hS1P1; [1]) | inhibition at 10 µM (hS1P2; [2]) | inhibition at 10 µM (hS1P1; [3]) | inhibition at 10 µM (hS1P2; [4]) |
| --- | --- | --- | --- | --- | --- |
| CCOC(=O)C(=NNc1ccc(Cl)cc1)Nc1ccccc1 [Compound 19, ethyl 1-(4-chlorophenylhydrazono)-1-(phenylamino)acetate] | 3640 nM | -25.4% | -8.6% | – | – |
| CCOC(=O)C(=NNc1ccc(Cl)cc1)Nc1cccc(C#N)c1 [Compound 20, ethyl 1-(4-chlorophenylhydrazono)-1-(3-cyanophenylamino)acetate] | 2180 nM | – | – | -3.5% | -4.6% |
| CC(C)(C)NC(=O)C(=NNc1ccc(Cl)cc1)Nc1cccc(F)c1 [Compound 28, N-tert-butyl-[1-(4-chlorophenylhydrazono)-1-(3-fluorophenylamino)]acetamide] | 7970 nM | – | – | 14.6% | 14.2% |
| CC(C)(C)NC(=O)C(=NNc1ccc(Cl)cc1)Nc1ccc(Cl)cc1 [Compound 29, N-tert-butyl-[1-(4-chlorophenylamino)-1-(4-chlorophenylhydrazono)]acetamide] | 5110 nM | – | – | 29.7% | 17.4% |
| CC(C)(C)C(=O)C(=NNc1cccc(Cl)c1)Nc1ccc(Cl)cc1 [Compound 42, 1-(4-chlorophenylamino)-1-(3-chlorophenylhydrazono)-3,3-dimethyl-2-butanone] | 2890 nM | – | – | 7.9% | 32.9% |
| CC(C)(C)C(=O)C(=NNc1ccccc1)Nc1ccc(Cl)cc1 [Compound 50, 1-(4-chlorophenylamino)-1-(phenylhydrazono)-3,3-dimethyl-2-butanone] | 3740 nM | – | – | 25.1% | 13.6% |
| Cc1ccc(NN=C(Nc2ccc(Cl)cc2)C(=O)C(C)(C)C)cc1 [Compound 62, 1-(4-chlorophenylamino)-1-(4-methylphenylhydrazono)-3,3-dimethyl-2-butanone] | 1720 nM | – | – | -9.7% | 7.4% |
| Cc1ccc(NN=C(Nc2ccc(C)cc2)C(=O)C(C)(C)C)cc1 [Compound 63, 1-(4-methylphenylamino)-1-(4-methylphenylhydrazono)-3,3-dimethyl-2-butanone] | 5710 nM | – | – | -9.1% | -1.4% |
| Cc1ccc(NN=C(Nc2cc(Cl)cc(Cl)c2)C(=O)C(C)(C)C)cc1 [Compound 64, 1-(3,5-dichlorophenylamino)-1-(4-methylphenylhydrazono)-3,3-dimethyl-2-butanone] | – | – | – | -1% | 9.1% |
| CC(C)(C)C(=O)C(=NNc1ccc(Br)cc1)Nc1ccc(Cl)cc1 [Compound 75, 1-(4-bromophenylhydrazono)-1-(4-chlorophenylamino)-3,3-dimethyl-2-butanone] | 1170 nM | – | – | 17% | 17.9% |
| C#Cc1ccc(NN=C(Nc2cccc(Cl)c2)C(=O)C(C)(C)C)cc1 [Compound 108, 1-(3-chlorophenylamino)-1-(4-ethynylphenylhydrazono)-3,3-dimethyl-2-butanone] | 840 nM | – | – | 11.1% | 15.8% |
| CCCCC(=O)C(=NNc1ccc(Cl)cc1)Nc1ccc(Cl)cc1 [Compound 115, 1-(4-chlorophenylamino)-1-(4-chlorophenylhydrazono)-2-hexanone] | 2470 nM | – | – | 24.3% | 27% |
| O=C(C(=NNc1ccc(Cl)cc1)Nc1ccc(Br)cc1)c1ccco1 [Compound 119, 1-(4-bromophenylamino)-1-(4-chlorophenylhydrazono)-2-(2-furyl)-2-ethanone] | 4230 nM | – | – | – | – |
| O=C(C(=NNc1ccc(Cl)cc1)Nc1ccc(Cl)cc1)c1cccs1 [Compound 125, 1-(4-chlorophenylamino)-1-(4-chlorophenylhydrazono)-2-(2-thienyl)-2-ethanone] | 8290 nM | – | – | – | – |

Continued, in another order:

| IC50 (hS1P3) | inhibition at 10 µM (hS1P1; [1]) | inhibition at 10 µM (hS1P2; [2]) | SMILES | inhibition at 10 µM (hS1P1; [3]) | inhibition at 10 µM (hS1P2; [4]) |
| --- | --- | --- | --- | --- | --- |
| 3120 nM | 26.1% | -16.7% | CCOC(=O)C(=NNc1ccc(Cl)cc1)Nc1cccc(F)c1 [Compound 13, ethyl 1-(4-chlorophenylhydrazono)-1-(3-fluorophenylamino)acetate] | – | – |
| 3540 nM | 18.4% | 27.1% | CC(C)(C)C(=O)C(=NNc1cccc(Cl)c1)Nc1cccc(F)c1 [Compound 41, 1-(3-chlorophenylhydrazono)-1-(3-fluorophenylamino)-3,3-dimethyl-2-butanone] | – | – |
| 5320 nM | 6.6% | 3.6% | CC(C)(C)C(=O)C(=NNc1ccccc1)Nc1cccc(F)c1 [Compound 49, 1-(3-fluorophenylamino)-1-(phenylhydrazono)-3,3-dimethyl-2-butanone] | – | – |
| 1020 nM | 29.5% | 26.2% | CC(C)(C)C(=O)C(=NNc1ccccc1)Nc1ccc(Cl)c(Cl)c1 [Compound 52, 1-(3,4-dichlorophenylamino)-1-(phenylhydrazono)-3,3-dimethyl-2-butanone] | – | – |
| 4470 nM | 27.1% | 18.5% | CC(C)(C)C(=O)C(=NNc1ccc(F)cc1)Nc1cccc(F)c1 [Compound 53, 1-(3-fluorophenylamino)-1-(4-fluorophenylhydrazono)-3,3-dimethyl-2-butanone] | – | – |
| 4950 nM | 11.5% | 15% | COc1ccc(NC(=NNc2ccc(F)cc2)C(=O)C(C)(C)C)cc1 [Compound 57, 1-(4-fluorophenylhydrazono)-1-(4-methoxyphenylamino)-3,3-dimethyl-2-butanone] | – | – |
| 3220 nM | -2.9% | 8.1% | Cc1ccc(NN=C(Nc2cccc(F)c2)C(=O)C(C)(C)C)cc1 [Compound 61, 1-(3-fluorophenylamino)-1-(4-methylphenylhydrazono)-3,3-dimethyl-2-butanone] | – | – |
| 670 nM | 5.1% | 10% | Cc1ccc(NN=C(Nc2ccc(Cl)c(Cl)c2)C(=O)C(C)(C)C)cc1 [Compound 65, 1-(3,4-dichlorophenylamino)-1-(4-methylphenylhydrazono)-3,3-dimethyl-2-butanone] | – | – |
| 1900 nM | 5.1% | 22.3% | CC(C)(C)C(=O)C(=NNc1ccc(Br)cc1)Nc1cccc(F)c1 [Compound 73, 1-(4-bromophenylhydrazono)-1-(3-fluorophenylamino)-3,3-dimethyl-2-butanone] | – | – |
| 380 nM | 20.6% | 26.3% | CC(C)(C)C(=O)C(=NNc1ccc(Br)cc1)Nc1ccc(Cl)c(Cl)c1 [Compound 80, 1-(4-bromophenylhydrazono)-1-(3,4-dichlorophenylamino)-3,3-dimethyl-2-butanone] | – | – |
| 430 nM | 28.3% | 18.9% | CC(C)(C)C(=O)C(=NNc1ccc(Cl)c(Cl)c1)Nc1cccc(F)c1 [Compound 104, 1-(3,4-dichlorophenylhydrazono)-1-(3-fluorophenylamino)-3,3-dimethyl-2-butanone] | – | – |
| 1780 nM | 5.9% | 20.7% | CC(C)(C)CC(=O)C(=NNc1ccc(Cl)cc1)Nc1cccc(F)c1 [Compound 113, 1-(4-chlorophenylhydrazono)-1-(3-fluorophenylamino)-4,4-dimethyl-2-pentanone] | – | – |
| 3850 nM | – | – | O=C(C(=NNc1ccc(Cl)cc1)Nc1ccc(F)cc1)c1ccco1 [Compound 118, 1-(4-chlorophenylhydrazono)-1-(4-fluorophenylamino)-2-(2-furyl)-2-ethanone] | – | – |
| 5450 nM | – | – | O=C(C(=NNc1ccc(Cl)cc1)Nc1cccc(C(F)(F)F)c1)c1ccco1 [Compound 120, 1-(4-chlorophenylhydrazono)-1-(3-trifluoromethylphenylamino)-2-(2-furyl)-2-ethanone] | – | – |
| 340 nM | – | – | CC(C)(C)C(=O)C(=NNc1ccc(Cl)c(Cl)c1)Nc1cccc(Cl)c1 [Compound 123, 1-(3-chlorophenylamino)-1-(3,4-dichlorophenylhydrazono)-3,3-dimethyl-2-butanone] | – | – |
| 450 nM | – | – | CC(C)(C)C(=O)C(=NNc1ccc(Cl)c(Cl)c1)Nc1ccc(Cl)cc1 [Compound 124, 1-(4-chlorophenylamino)-1-(3,4-dichlorophenylhydrazono)-3,3-dimethyl-2-butanone] | – | – |
| 820 nM | – | – | C#Cc1ccc(NC(=NNc2ccc(Cl)c(Cl)c2)C(=O)C(C)(C)C)cc1 [Compound 132, 1-(3,4-dichlorophenylhydrazono)-1-(4-ethynylphenylamino)-3,3-dimethyl-2-butanone] | – | – |
| 900 nM | – | – | CC(C)(C)C(=O)C(=NNc1ccc(Cl)cc1)Nc1ccc(Cl)c(F)c1 [Compound 135, 1-(4-chloro-3-fluorophenylamino)-1-(4-chlorophenylhydrazono)-3,3-dimethyl-2-butanone] | – | – |
| 1990 nM | – | – | CCCCC(=O)C(=NNc1ccc(Cl)cc1)Nc1cccc(Cl)c1 [Compound 141, 1-(3-chlorophenylamino)-1-(4-chlorophenylhydrazono)-2-hexanone] | – | – |
